Results: US10765114B2, “4-amino-6-(pyridyl and 2-substitutedphenyl)-picolinates and 6-amino-2-(pyridyl and 2-substitutedphenyl)-pyrimidine-4-carboxylates and their use as herbicides” (Dow AgroSciences LLC, priority 2013, dated 2020)
Like-named read-outs stand apart in the source and are kept apart here.

How the values were obtained:
[1] = system: Key Broadleaf Weed and Crop Species; assay: Post-Emergent Test II (Table 5); format: in vivo; details: post-emergence, 336 h; for pest or weed control at 70 g/ha: application rate 70 (kg ai/ha; footnote: g ai/ha); for pest or weed control at 140 g/ha: application rate 140 (kg ai/ha; footnote: g ai/ha)
How it was run: (§1)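 Plants grown in a greenhouse (~15 h photoperiod, 23-29° C day) to first or second true leaf stage were sprayed post-emergence at 187 L/ha with compound in acetone/DMSO-based aqueous spray containing crop oil concentrate and surfactant, applied at a high rate plus ½× to 1/16× serial rates. Injury was scored visually 14 days later, 0-100% versus untreated plants.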

[2] = system: Key Grass and Sedge Weeds as well as Grass Crops; assay: Post-Emergent Test II (Table 6); format: in vivo; details: post-emergence, 336 h, 14 days after application; for pest or weed control at 70 g/ha: 70 g ai/ha; for pest or weed control at 140 g/ha: 140 g ai/ha
How it was run: as §1

[3] = Abutilon theophrasti, ABUTH: velvetleaf (Abutilon theophrasti), read-out: Visual Growth Reduction (%) 14 Days After Application ABUTH
[4] = Amaranthus retroflexus, AMARE: redroot pigweed (Amaranthus retroflexus), read-out: Visual Growth Reduction (%) 14 Days After Application AMARE
[5] = Brassica napus, BRSSS: oilseed rape, canola (Brassica napus), read-out: Visual Growth Reduction (%) 14 Days After Application BRSSS
[6] = Chenopodium album, CHEAL: lambsquarters (Chenopodium album), read-out: Visual Growth Reduction (%) 14 Days After Application CHEAL
[7] = Euphorbia heterophylla, EPHHL: wild poinsettia (Euphorbia heterophylla), read-out: Visual Growth Reduction (%) 14 Days After Application EPHHL
[8] = Helianthus annuus, HELAN: sunflower (Helianthus annuus), read-out: Visual Growth Reduction (%) 14 Days After Application HELAN
[9] = Viola tricolor, VIOTR: wild pansy (Viola tricolor), read-out: Visual Growth Reduction (%) 14 Days After Application VIOTR
[10] = CYPSS, read-out: Visual Growth Reduction (%) 14 Days After Application CYPSS
[11] = DIGSA: crabgrass (Digitaria sanguinalis), read-out: Visual Growth Reduction (%) 14 Days After Application DIGSA
[12] = ECHSS, read-out: Visual Growth Reduction (%) 14 Days After Application ECHSS
[13] = ORYSS (crop), read-out: Visual Growth Reduction (%) 14 Days After Application ORYSS
[14] = SETFA: giant foxtail (Setaria faberi), read-out: Visual Growth Reduction (%) 14 Days After Application SETFA
[15] = SORVU: grain sorghum (Sorghum vulgare), read-out: Visual Growth Reduction (%) 14 Days After Application SORVU
[16] = TRZSS (crop), read-out: Visual Growth Reduction (%) 14 Days After Application TRZSS
[17] = ZEAMX: maize, corn (Zea mays), read-out: Visual Growth Reduction (%) 14 Days After Application ZEAMX

| Structure (SMILES) | pest or weed control at 70 g/ha [1, 3] [%] | pest or weed control at 140 g/ha [1, 3] [%] | pest or weed control at 70 g/ha [1, 4] [%] | pest or weed control at 140 g/ha [1, 4] [%] | pest or weed control at 70 g/ha [1, 5] [%] | pest or weed control at 140 g/ha [1, 5] [%] | pest or weed control at 70 g/ha [1, 6] [%] | pest or weed control at 140 g/ha [1, 6] [%] | pest or weed control at 70 g/ha [1, 7] [%] | pest or weed control at 70 g/ha [1, 8] [%] | pest or weed control at 140 g/ha [1, 8] [%] | pest or weed control at 70 g/ha [1, 9] [%] | pest or weed control at 140 g/ha [1, 9] [%] | pest or weed control at 70 g/ha [2, 10] [%] | pest or weed control at 140 g/ha [2, 10] [%] | pest or weed control at 70 g/ha [2, 11] [%] | pest or weed control at 140 g/ha [2, 11] [%] | pest or weed control at 70 g/ha [2, 12] [%] | pest or weed control at 140 g/ha [2, 12] [%] | pest or weed control at 70 g/ha [2, 13] [%] | further results |
| --- | --- | --- | --- | --- | --- | --- | --- | --- | --- | --- | --- | --- | --- | --- | --- | --- | --- | --- | --- | --- | --- |
| COC(=O)c1nc(-c2ccc(C)nc2F)c(F)c(N)c1Cl [Compound 76] | 85 to 94 | 85 to 94 | 95 to 100 | 95 to 100 | 85 to 94 | 95 to 100 | 95 to 100 | 95 to 100 | 95 to 100 | 85 to 94 | 95 to 100 | 0 to 29 | 0 to 29 | 0 to 29 | 0 to 29 | 75 to 84 | 85 to 94 | 75 to 84 | 85 to 94 | 0 to 29 | pest or weed control at 140 g/ha [2, 13]: 0 to 29%; pest or weed control at 70 g/ha [2, 14]: 45 to 59%; pest or weed control at 140 g/ha [2, 14]: 60 to 74%; pest or weed control at 70 g/ha [2, 15]: 45 to 59%; pest or weed control at 140 g/ha [2, 15]: 45 to 59%; pest or weed control at 70 g/ha [2, 16]: 30 to 44%; pest or weed control at 140 g/ha [2, 16]: 45 to 59%; pest or weed control at 70 g/ha [2, 17]: 0 to 29%; pest or weed control at 140 g/ha [2, 17]: 95 to 100%; melting point: 165 to 166 °C |
| COC(=O)c1nc(-c2ccc(Cl)c(F)c2OC)nc(N)c1OC [Compound 70, Methyl 6-amino-2-(4-chloro-3-fluoro-2-methoxyphenyl)-5-methoxypyrimidine-4-carboxylate] | 85 to 94 | 60 to 74 | 95 to 100 | 95 to 100 | 95 to 100 | 95 to 100 | 95 to 100 | 95 to 100 | 0 to 29 | 95 to 100 | 95 to 100 | 0 to 29 | 0 to 29 | 0 to 29 | 0 to 29 | 0 to 29 | 0 to 29 | 0 to 29 | 0 to 29 | 0 to 29 | pest or weed control at 140 g/ha [1, 7]: 0 to 29%; pest or weed control at 140 g/ha [2, 13]: 0 to 29%; pest or weed control at 70 g/ha [2, 14]: 0 to 29%; pest or weed control at 140 g/ha [2, 14]: 0 to 29%; pest or weed control at 70 g/ha [2, 15]: 0 to 29%; pest or weed control at 140 g/ha [2, 15]: 0 to 29%; pest or weed control at 70 g/ha [2, 16]: 0 to 29%; pest or weed control at 140 g/ha [2, 16]: 0 to 29%; pest or weed control at 70 g/ha [2, 17]: 0 to 29%; pest or weed control at 140 g/ha [2, 17]: 0 to 29%; melting point: 60 to 61 °C |
| Nc1cc(-c2ccc(Cl)nc2Cl)nc(C(=O)O)c1Cl [Compound 1, 4-amino-2′,5,6′-trichloro-[2,3′-bipyridine]-6-carboxylic acid] | 30 to 44 | 75 to 84 | 95 to 100 | 95 to 100 | 85 to 94 | 95 to 100 | 85 to 94 | 95 to 100 | 0 to 29 | 75 to 84 | 85 to 94 | 0 to 29 | 30 to 44 | 0 to 29 | 0 to 29 | 0 to 29 | 0 to 29 | 0 to 29 | 0 to 29 | 0 to 29 | pest or weed control at 140 g/ha [1, 7]: 0 to 29%; pest or weed control at 140 g/ha [2, 13]: 0 to 29%; pest or weed control at 70 g/ha [2, 14]: 0 to 29%; pest or weed control at 140 g/ha [2, 14]: 0 to 29%; pest or weed control at 70 g/ha [2, 15]: 0 to 29%; pest or weed control at 140 g/ha [2, 15]: 0 to 29%; pest or weed control at 70 g/ha [2, 16]: 0 to 29%; pest or weed control at 140 g/ha [2, 16]: 0 to 29%; pest or weed control at 70 g/ha [2, 17]: 0 to 29%; pest or weed control at 140 g/ha [2, 17]: 0 to 29%; melting point: 184 °C (dec.) |
